Source: patent US20100075965A1, “PI3 KINASE INHIBITORS AND METHODS OF THEIR USE” (Novartis AG, priority 2006, published 2010)
Read-outs that look alike come from different tables or passages of the source.

Experiments:
PI3 K Alpha = PI3 K Alpha (Homo sapiens, UniProt P42336); experiment: PI3 kinase phosphorylation assays (homogenous solution phase, one step solid phase, ATP depletion/KinaseGlo); type: biochemical
[1] = tested on: pSer473-Akt in A2780 cells; experiment: pSer473 Akt assay to monitor PI3K pathway in A2780 cells (MSD); type: cell-based; details: Homo sapiens, A2780 cells
Method in brief: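 EC50 is derived from percent inhibition of Akt Ser473 phosphorylation, normalised to total Akt and compared with DMSO-only wells, read by MSD immunoassay. Lysates came from A2780 cells plated overnight at 15,000/well and exposed to compound for one hour at 37 °C.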

A2780 cells = experiment: Viability assay in A2780 (Cell Titer Glo); type: cell-based, human; details: Homo sapiens, A2780 cells, read-out: A2780 Cell prolif. EC50
Method in brief: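 EC50 values come from Cell Titer Glo luminescence after 72 hrs of compound exposure at 37° C, run in duplicate. A2780 cells were plated at 1,000 per well in DMEM with 10% FBS and dosed with 3-fold serial dilutions.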

[2] = ATP depletion assay, read-out: PI3 K Alpha IC50
[3] = 1 h, one hour incubation, read-out: A2780 pAKT473 EC50

Sequence of PI3 K Alpha (P42336 whole entry): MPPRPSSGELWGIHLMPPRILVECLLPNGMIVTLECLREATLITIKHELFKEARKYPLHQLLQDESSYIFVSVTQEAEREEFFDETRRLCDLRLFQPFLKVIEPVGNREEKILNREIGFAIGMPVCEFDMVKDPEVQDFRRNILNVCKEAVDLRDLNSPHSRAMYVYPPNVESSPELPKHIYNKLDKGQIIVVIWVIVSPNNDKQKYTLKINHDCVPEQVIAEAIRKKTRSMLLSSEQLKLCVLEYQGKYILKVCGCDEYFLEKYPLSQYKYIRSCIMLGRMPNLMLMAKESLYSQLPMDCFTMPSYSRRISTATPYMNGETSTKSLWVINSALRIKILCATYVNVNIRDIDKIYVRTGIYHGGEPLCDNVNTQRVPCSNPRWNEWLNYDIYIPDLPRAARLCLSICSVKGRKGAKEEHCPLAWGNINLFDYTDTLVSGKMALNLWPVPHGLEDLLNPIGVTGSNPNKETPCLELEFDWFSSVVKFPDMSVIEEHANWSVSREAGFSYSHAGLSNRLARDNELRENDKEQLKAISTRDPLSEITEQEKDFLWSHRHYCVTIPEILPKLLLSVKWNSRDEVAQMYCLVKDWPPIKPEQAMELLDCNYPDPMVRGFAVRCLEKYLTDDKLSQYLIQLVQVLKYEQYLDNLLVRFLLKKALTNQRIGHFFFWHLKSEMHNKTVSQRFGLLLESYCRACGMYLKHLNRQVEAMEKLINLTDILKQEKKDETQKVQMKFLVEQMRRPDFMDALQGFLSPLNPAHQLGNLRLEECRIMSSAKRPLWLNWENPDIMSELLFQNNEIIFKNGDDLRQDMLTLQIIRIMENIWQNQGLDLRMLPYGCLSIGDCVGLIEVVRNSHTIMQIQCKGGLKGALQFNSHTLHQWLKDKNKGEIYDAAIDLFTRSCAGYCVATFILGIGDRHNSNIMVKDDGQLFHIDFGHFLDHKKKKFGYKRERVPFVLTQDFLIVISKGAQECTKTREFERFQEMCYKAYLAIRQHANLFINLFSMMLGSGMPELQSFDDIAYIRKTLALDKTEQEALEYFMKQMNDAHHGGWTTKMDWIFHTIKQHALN
Sequence of PI3 K Alpha (P27986 whole entry partner): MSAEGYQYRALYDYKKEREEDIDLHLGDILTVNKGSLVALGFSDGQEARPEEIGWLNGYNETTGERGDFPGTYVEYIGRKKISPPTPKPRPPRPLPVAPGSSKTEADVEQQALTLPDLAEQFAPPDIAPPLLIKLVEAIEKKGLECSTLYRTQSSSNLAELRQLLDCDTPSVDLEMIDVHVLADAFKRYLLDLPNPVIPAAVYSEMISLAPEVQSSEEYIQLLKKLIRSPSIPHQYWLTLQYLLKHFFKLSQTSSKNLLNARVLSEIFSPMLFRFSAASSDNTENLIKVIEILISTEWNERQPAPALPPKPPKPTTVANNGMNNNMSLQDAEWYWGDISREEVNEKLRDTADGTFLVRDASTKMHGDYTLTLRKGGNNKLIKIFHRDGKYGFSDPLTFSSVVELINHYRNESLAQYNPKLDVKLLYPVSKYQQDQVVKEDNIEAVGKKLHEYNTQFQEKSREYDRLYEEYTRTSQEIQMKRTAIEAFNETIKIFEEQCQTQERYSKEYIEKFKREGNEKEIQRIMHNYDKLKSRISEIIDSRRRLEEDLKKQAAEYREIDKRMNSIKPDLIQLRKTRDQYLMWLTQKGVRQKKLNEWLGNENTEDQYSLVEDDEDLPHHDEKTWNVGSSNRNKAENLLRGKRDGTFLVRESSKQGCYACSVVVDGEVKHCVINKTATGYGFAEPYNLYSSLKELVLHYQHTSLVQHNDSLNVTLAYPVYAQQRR

Compound | IC50 (PI3 K Alpha; read-out: PI3K Alpha IC50) [nM] | EC50 ([1]; read-out: A2780 pAKT 473 EC50) [nM] | EC50 (A2780 cells) [nM] | IC50 (PI3 K Alpha; [2]) [nM] | EC50 [1, 3] [nM] | EC50 (A2780 cells; 72 hrs) [nM]
CC(=O)Nc1cn2cc(-c3cnc(N)c(C(=O)NCCN4CCCC4)n3)ccc2n1 [Example 100, 6-(2-acetamido-imidazo[1,2-a]pyridin-6-yl)-3-amino-N-(2-(pyrrolidin-1-yl)ethyl) pyrazine-2-carboxamide] | < 1000 | < 1000 | < 1000 |  |  | 
CC(=O)Nc1cn2nc(-c3cnc(N)c(C(=O)O)c3)ccc2n1 [Example 136, 5-(2-acetamido-imidazo[1,2-b]pyridazin-6-yl)-2-aminonicotinic acid] | < 1000 | < 25000 | < 25000 |  |  | 
CC(=O)Nc1cn2cc(-c3cnc(N)c(/C=N/NCC(F)(F)F)c3)ccc2n1 [Example 76, (E)-N-(6-(6-amino-5-((2-(2,2,2-trifluoroethyl) hydrazono)methyl)pyridin-3-yl)imidazo[1,2-a]pyridin-2-yl)acetamide] | < 1000 | < 1000 | < 1000 |  |  | 
CC(C)(C)OC(=O)NCC(=O)Nc1cn2nc(-c3cnc(N)c(C(F)(F)F)c3)ccc2n1 [Example 135, tert-butyl 2-(6-(6-amino-5-(trifluoromethyl)pyridin-3-yl)imidazo[1,2-b]pyridazin-2-ylamino)-2-oxoethylcarbamate] | < 1000 | < 1000 | < 10000 |  |  | 
COc1cc(-c2ccc3nc(NC(C)=O)c(Br)n3c2)cnc1N [Example 8, N-[6-(6-Amino-5-methoxy-pyridin-3-yl)-3-bromo-imidazo[1,2-a]pyridin-2-yl]-acetamide] | < 1000 | < 1000 | < 10000 |  |  | 
CC(=O)Nc1cn2nc(-c3cnc(N)c(-c4ccccc4Oc4ccccc4)c3)ccc2n1 [Example 115, N-(6-(6-amino-5-(2-phenoxyphenyl)pyridin-3-yl)imidazo[1,2-b]pyridazin-2-yl)acetamide] | < 1000 | < 1000 | < 10000 |  |  | 
CC(=O)Nc1cn2cc(-c3cnc(N)c(/C=N/N(C)C)c3)ccc2n1 [Example 204, (E)-N-(6-(6-amino-5-((2,2-dimethylhy-drazono)methyl)pyridin-3-yl)imidazo[1,2-a]pyridin-2-yl)acetamide] | < 1000 | < 1000 | < 10000 |  |  | 
CC(=O)Nc1nc2ccc(-c3cnc(N)c(C(F)(F)F)c3)cn2c1-c1ccc(C(N)=O)cc1 [Example 13, 4-[2-Acetylamino-6-(6-amino-5-trifluoromethyl-pyridin-3-yl)-imidazo[1,2-a]pyridin-3-yl]-benzamide] | < 1000 | < 25000 | < 25000 |  |  | 
CCN1CCCCC1CCC(=O)Nc1cn2nc(-c3cnc(N)c(C(F)(F)F)c3)ccc2n1 (stereo not drawn) [Example 104, N-(6-(6-amino-5-(trifluoromethyl)pyridin-3-yl)imidazo[1,2-b]pyridazin-2-yl)-3-(1-ethylpiperidin-2-yl)propanamide] | < 1000 | < 1000 | < 1000 |  |  | 
Nc1ncc(-c2ccc3nc(NC(=O)CCCO)cn3c2)cc1C(F)(F)F [Example 27, N-[6-(6-Amino-5-trifluoromethyl-pyridin-3-yl)-imidazo[1,2-a]pyridin-2-yl]-4-hydroxy-butyramide] | < 1000 | < 1000 | < 10000 |  |  | 
CC(=O)Nc1nc2ccc(-c3cnc(N)c(C(F)(F)F)c3)cn2c1-c1ccccc1 [Example 12, N-[6-(6-Amino-5-trifluoromethyl-pyridin-3-yl)-3-phenyl-imidazo[1,2-a]pyridin-2-yl]-acetamide] | < 1000 | < 10000 | < 25000 |  |  | 
CCCNc1ccc(-c2ccc3nc(NC(C)=O)sc3c2)cn1 [Example 2-7, N-[6-(6-Propylamino-pyridin-3-yl)-benzothiazol-2-yl]-acetamide] |  |  |  | < 1000 | < 1000 | < 25000
CC(=O)Nc1cn2cc(-c3cnc(N)c(-c4ccccc4)n3)ccc2n1 [Example 113, N-(6-(5-amino-6-phenylpyrazin-2-yl)imidazo[1,2-a]pyridin-2-yl)acetamide] | < 1000 | < 1000 | < 10000 |  |  | 
CCN(CC)CC#Cc1c(NC(C)=O)nc2ccc(-c3cnc(N)c(C(F)(F)F)c3)cn12 [Example 30, N-[6-(6-Amino-5-trifluoromethyl-pyridin-3-yl)-3-(3-diethylamino-prop-1-ynyl)-imidazo[1,2-a]pyridin-2-yl]-acetamide] | < 1000 | < 1000 | < 10000 |  |  | 
CC(=O)Nc1cn2nc(-c3cnc(N)c(-c4ccn(C)n4)c3)ccc2n1 [Example 95, N-(6-(6-amino-5-(1-methyl-1H-pyrazol-3-yl)pyridin-3-yl)imidazo[1,2-b]pyridazin-2-yl)acetamide] | < 1000 | < 1000 | < 1000 |  |  | 
CC(=O)Nc1cn2cc(-c3cnc(N)c(C=O)c3)ccc2n1 [Example 195, N-(6-(6-amino-5-formylpyridin-3-yl)imidazo[1,2-a]pyridin-2-yl)acetamide] | < 1000 | < 1000 | < 10000 |  |  | 
Nc1ncc(-c2ccc3nc(NC(=O)CCCN4CCCCC4)cn3n2)cc1C(F)(F)F [Example 71, N-(6-(6-amino-5-(trifluoromethyl)pyridin-3-yl)imidazo[1,2-b]pyridazin-2-yl)-4-(piperidin-1-yl)butanamide] | < 1000 | < 1000 | < 1000 |  |  | 
CC(=O)Nc1cn2cc(-c3cnc(N)c(F)c3)ccc2n1 [Example 28, N-[6-(6-Amino-5-fluoro-pyridin-3-yl)-imidazo[1,2-a]pyridin-2-yl]-acetamide] | < 1000 | < 1000 | < 25000 |  |  | 
CNC(=O)Nc1nc2ccc(-c3ccc(N)nc3)cc2s1 [Example 2-23, 1-[6-(6-Amino-pyridin-3-yl)-benzothiazol-2-yl]-3-methyl-urea] |  |  |  | < 1000 | < 1000 | < 10000
CNCC(=O)Nc1cn2cc(-c3cnc(N)c(OCCOC)n3)ccc2n1 [Example 122, N-(6-(5-amino-6-(2-methoxyethoxy)pyrazin-2-yl)imidazo[1,2-a]pyridin-2-yl)-2-(methylamino) acetamide] | < 1000 | < 1000 | < 10000 |  |  | 
Nc1ncc(-c2ccc3nc(NC(=O)Cc4cccc5ccccc45)cn3c2)cc1C(F)(F)F [Example 110, N-(6-(6-amino-5-(trifluoromethyl)pyridin-3-yl)imidazo[1,2-a]pyridin-2-yl)-2-(naphthalen-1-yl)acetamide] | < 1000 | < 1000 | < 1000 |  |  | 
Nc1ncc(-c2ccc3nc(NC(=O)CCCN4CCOCC4)cn3c2)cc1C(F)(F)F [Example 26, N-[6-(6-Amino-5-trifluoromethyl-pyridin-3-yl)-imidazo[1,2-a]pyridin-2-yl]-4-morpholin-4-yl-butyramide] | < 1000 | < 1000 | < 10000 |  |  | 
COCC(=O)Nc1cn2nc(-c3cnc(N)c(C(F)(F)F)c3)ccc2n1 [Example 74, n-(6-(6-amino-5-(trifluoromethyl)pyridin-3-yl)imidazo[1,2-b]pyridazin-2-yl)-2-methoxyacetamide] | < 1000 | < 1000 | < 1000 |  |  | 
Nc1ncc(-c2ccc3nc(NC(=O)C4CNC4)cn3n2)cc1C(F)(F)F [Example 116, N-(6-(6-amino-5-(trifluoromethyl)pyridin-3-yl)imidazo[1,2 b]pyridazin-2-yl)azetidine-3-carboxamide] | < 1000 | < 1000 | < 10000 |  |  | 
CC(=O)Nc1cn2cc(-c3cnc(N)c(-c4cccc(OC(F)(F)F)c4)c3)ccc2n1 [Example 92, N-(6-(6-amino-5-(3-(trifluoromethoxy)phenyl)pyridin-3-yl)imidazo[1,2-a]pyridin-2-yl)acetamide] | < 1000 | < 10000 | < 1000 |  |  | 
CC(=O)Nc1nc2ccc(-c3cnc(N)c(C(F)(F)F)c3)cn2c1C#N [Example 32, N-[6-(6-Amino-5-trifluoromethyl-pyridin-3-yl)-3-cyano-imidazo[1,2-a]pyridin-2-yl]-acetamide] | < 1000 | < 1000 | < 1000 |  |  | 
CC(=O)Nc1nc2ccc(-c3cnc(N)c(C(F)(F)F)c3)cn2c1C#Cc1ccc(C)cc1 [Example 127, N-(6-(6-amino-5-(trifluoromethyl)pyridin-3-yl)-3-(p-tolylethynyl)imidazo[1,2-a]pyridin-2-yl)acetamide] | < 1000 | < 1000 | < 10000 |  |  | 
